Reference: patent publication US20200138892A1, “ANTI-DIABETIC ACTIVITY OF NEEM EXTRACT AND SYNERGISTIC COMBINATIONS OF UROLITHINS A AND B” (Natreon, Inc., priority 2018, published 2020)
Marks after values point to notes of the source that are not given here.

How the values were obtained:
Format in all cases: in vivo
[1] = tested on: streptozotocin-induced diabetic mice; assay: Fasting blood glucose in streptozotocin-induced diabetic mice (Study 2); conditions: for Fasting blood glucose: 10 mg/kg body weight orally; for Effect on STZ-induced increased sugar level (FBG), words: 10 mg/kg orally for 1 month, p<0.001 vs STZ
Procedure: Body weight, food intake, water intake, and fasting blood glucose (blood was collected following 12 hours fasting) were measured pre-induction of diabetes. Diabetes was induced by administering streptozotocin (50 mg/kg, body weight) in sodium citrate buffer, pH 4.5, intraperitoneally. Five days after streptozotocin administration fasting blood glucose was estimated (following 12 hours of fasting). Mice having blood glucose level 250±20 mg % was considered for the following study. The male and female mice were divided into the following four groups (n=8):
Following streptozotocin-induced hyperglycemia, treatment regimen was carried out for 1 month. 3-OH-DBP (Urolithin B) and 3,8-(OH)2-DBP (Urolithin A) each was separately suspended in 0.3% CMC and administered at a dose of 10 mg/kg body weight orally for 1 month. During the 1-month treatment, body weight and food and water intake were monitored at regular intervals. FBG (following 12 hours of fasting) was estimated twice at 15-day intervals. The results were expressed in terms of mean±SEM (n=8). The data were subjected to one-way ANOVA followed by Tukey's test using GraphPad Prism 4.0 software to establish statistical significance (*p<0.05, **p<0.01, ***p<0.001; ^# p<0.05, ^## p<0.01, ^### p<0.001).

[2] = tested on: streptozotocin-induced diabetic mice; assay: Fasting blood glucose in streptozotocin-induced diabetic mice (Study 1); conditions: 250 mg/kg b.w. orally, Week 3
[3] = tested on: streptozotocin-induced diabetic mice; assay: HbA1C level in streptozotocin-induced diabetic mice (Study 1); conditions: for HbA1C level: 250 mg/kg b.w. orally
Procedure: (§1) Body weight, food intake, water intake, and fasting basal blood glucose level were measured before induction on diabetes. Diabetes was induced by single administration of streptozotocin (65 mg/kg body weight) in sodium citrate buffer, pH 4.5, intraperitoneally. Five days after streptozotocin administration, fasting blood glucose level was estimated. Mice having blood glucose levels of 230±20 mg % were considered for the study. The male and female mice each were divided into the following groups:
Following streptozotocin-induced hyperglycemia, the treatment regimen was carried out for two weeks. Neem extract was suspended in 0.3% sodium carboxymethylcellulose (“CMC”) and administered at a dose of 50 mg/kg b.w., 100 mg/kg b.w., and 250 mg/kg b.w. orally for two weeks. Similarly, metformin was suspended in 0.3% CMC and administered at a dose of 250 mg/kg b.w. orally for two weeks. During the treatment schedule, body weight and food and water intake were monitored at regular intervals. […] The results were expressed in terms of mean±SEM (n=4, from each gender). The data were subjected to one-way ANOVA followed by Tukey's test using GraphPad Prism 4.0 software to establish statistical significance (*p<0.05, **p<0.01, ***p<0.001; ^# p<0.05, ^## p<0.01, ^### p<0.001).

[4] = tested on: streptozotocin-induced diabetic mice; assay: Fasting blood glucose in streptozotocin-induced diabetic mice (Study 1); conditions: for Blood sugar level (FBG): 250 mg/kg b.w. orally; for Effect on STZ-induced increased sugar level (FBG), words: Neem 50, Neem 100, Neem 250, Met 250, vs STZ-induced diabetic mice
Procedure: as §1
Following streptozotocin-induced hyperglycemia, the treatment regimen was carried out for two weeks. Neem extract was suspended in 0.3% sodium carboxymethylcellulose (“CMC”) and administered at a dose of 50 mg/kg b.w., 100 mg/kg b.w., and 250 mg/kg b.w. orally for two weeks. Similarly, metformin was suspended in 0.3% CMC and administered at a dose of 250 mg/kg b.w. orally for two weeks. During the treatment schedule, body weight and food and water intake were monitored at regular intervals. Fasting blood glucose (“FBG”), HbA1C, plasma cholesterol, and triglyceride levels were monitored every week for two weeks. The results were expressed in terms of mean±SEM (n=4, from each gender). The data were subjected to one-way ANOVA followed by Tukey's test using GraphPad Prism 4.0 software to establish statistical significance (*p<0.05, **p<0.01, ***p<0.001; ^# p<0.05, ^## p<0.01, ^### p<0.001).

[5] = STZ-induced diabetic female mice, Day 5 (Post-Induction)
[6] = STZ-induced diabetic female mice, Day 15 of treatment
[7] = STZ-induced diabetic female mice, Day 30 of treatment
[8] = STZ-induced diabetic female mice, Pre-Induction
[9] = STZ-induced diabetic male mice, Day 5 (Post-Induction)
[10] = STZ-induced diabetic male mice, Day 15 of treatment
[11] = STZ-induced diabetic male mice, Day 30 of treatment
[12] = STZ-induced diabetic male mice, Pre-Induction
[13] = STZ-induced diabetic female mice, Week 2
[14] = STZ-induced diabetic male mice, Week 2

| SMILES | Fasting blood glucose [1, 5] | Fasting blood glucose [1, 6] | Fasting blood glucose [1, 7] | Fasting blood glucose [1, 8] [mg %] | Fasting blood glucose [1, 9] [mg %] | Fasting blood glucose [1, 10] | Fasting blood glucose [1, 11] | Fasting blood glucose [1, 12] | Effect on STZ-induced increased sugar level (FBG), words ([1]; female mice) | Effect on STZ-induced increased sugar level (FBG), words ([1]; male mice) | other results |
| --- | --- | --- | --- | --- | --- | --- | --- | --- | --- | --- | --- |
| O=c1oc2cc(O)ccc2c2ccccc12 [3-OH-DBP, 3-hydroxy-dibenzo-α-pyrone] | 251.6 ± 1.280*** mg % | 189.8 ± 2.690***^, ### mg % | 147.3 ± 15.21***^, ### mg % | 126.8 ± 3.848 | 254.6 ± 1.575 | 171 ± 6.586***^, ### mg % | 134.2 ± 3.381***^, ### mg % | 99.06 ± 14.73*** mg % | attenuated the STZ-induced increased sugar level | attenuated the STZ-induced increased sugar level |  |
| CN(C)C(=N)N=C(N)N [Metformin, metformin] |  |  |  |  |  |  |  |  |  |  | Blood sugar level (FBG) ([2]; STZ-induced diabetic female mice): 121.2 ± 8.192 mg %; Blood sugar level (FBG) ([2]; STZ-induced diabetic male mice): 136.2 ± 4.89 mg %; HbA1C level [3, 13]: 5.53 ± 0.46%; HbA1C level ([3]; STZ-induced diabetic female mice, Week 3): 3.08 ± 0.58^## %; HbA1C level [3, 14]: 5.05 ± 0.51%; HbA1C level ([3]; STZ-induced diabetic male mice, Week 3): 4.40 ± 0.65^# %; Effect on STZ-induced increase in HbA1C level, words ([3]; male and female mice, Neem 50, Neem 100, Neem 250, Met 250, vs STZ-induced diabetic mice): attenuated the STZ-induced increased in HbA1C level; Blood sugar level (FBG) ([4]; STZ-induced diabetic female mice, Day 0): 119.2 ± 15.5 ^ mg %; Blood sugar level (FBG) ([4]; STZ-induced diabetic female mice, Week 1): 241.1 ± 22.19*** mg %; Blood sugar level (FBG) [4, 13]: 133.8 ± 9.04^## mg %; Blood sugar level (FBG) ([4]; STZ-induced diabetic male mice, Day 0): 117.3 ± 23.99 ^ mg %; Blood sugar level (FBG) ([4]; STZ-induced diabetic male mice, Week 1): 269.2 ± 25.37*** mg %; Blood sugar level (FBG) [4, 14]: 133.4 ± 7.96**^, # mg %; Effect on STZ-induced increased sugar level (FBG), words ([4]; female mice): attenuated the STZ-induced increased sugar level; Effect on STZ-induced increased sugar level (FBG), words ([4]; male mice): attenuated the STZ-induced increased sugar level |
| O=c1oc2cc(O)ccc2c2ccc(O)cc12 [3,8-(OH)2-DBP, 3,8-dihydroxy-dibenzo-α-pyrone] | 253.2 ± 5.194*** mg % | 166 ± 2.623***^, ### mg % | 153.9 ± 9.953***^, ### mg % | 95.45 ± 12.67 | 252.2 ± 1.780 | 166 ± 5.276***^, ### mg % | 156.7 ± 10.75***^, ### mg % | 94.12 ± 7.811*** mg % | attenuated the STZ-induced increased sugar level | attenuated the STZ-induced increased sugar level |  |
